Test results from PubChem BioAssay (NCI).
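48-hour exposure; five concentrations; linearly interpolated endpoints. TGI: total growth inhibition.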

Assays:
Assay in all cases: NCI tumour cell line growth inhibition, 48 h
[1] = system: 786-0 renal
[2] = system: IGROV1 ovarian
[3] = system: NCI/ADR-RES ovarian
[4] = system: MDA-MB-435
[5] = system: EKVX NSCLC
[6] = system: SNB-19 CNS
[7] = system: SK-MEL-2 melanoma
[8] = system: MCF7 breast
[9] = system: PC-3 prostate
[10] = system: HOP-92 NSCLC
[11] = system: KM12 colon
[12] = system: HCT-15 colon
[13] = system: RPMI-8226 leukemia
[14] = system: TK-10 renal
[15] = system: UACC-62 melanoma
[16] = system: MALME-3M melanoma
[17] = system: NCI-H522 lung
[18] = system: MDA-MB-231 breast
[19] = system: UO-31 renal
[20] = system: SK-MEL-28 melanoma

| SMILES | TGI [1] | TGI [2] | TGI [3] | TGI [4] | TGI [5] | TGI [6] | TGI [7] | TGI [8] | TGI [9] | TGI [10] | TGI [11] | TGI [12] | TGI [13] | TGI [14] | TGI [15] | TGI [16] | TGI [17] | TGI [18] | TGI [19] | TGI [20] |
| --- | --- | --- | --- | --- | --- | --- | --- | --- | --- | --- | --- | --- | --- | --- | --- | --- | --- | --- | --- | --- |
| COC(=O)[C@H](Cc1c[nH]c2ccccc12)NP(=O)(O)OC[C@H]1O[C@@H](n2cc(C)c(=O)[nH]c2=O)C[C@@H]1N=[N+]=[N-] | > 100 µM | > 100 µM | > 100 µM | > 100 µM | > 100 µM | > 100 µM | > 100 µM | > 100 µM | > 100 µM | > 100 µM | > 100 µM | > 100 µM | > 100 µM | > 100 µM | > 100 µM | > 100 µM | > 100 µM | > 100 µM | > 100 µM | – |
| CCOC(=O)c1cc2c3c(c(C(C)=O)c(O)c2[nH]1)N(C(C)=O)CC3 | > 100 µM | > 100 µM | > 100 µM | > 100 µM | > 100 µM | > 100 µM | > 100 µM | > 100 µM | > 100 µM | – | > 100 µM | > 100 µM | > 100 µM | > 100 µM | > 100 µM | > 100 µM | – | > 100 µM | > 100 µM | > 100 µM |
| CN(C)CCNC(=O)c1cccc2c(NC(CS)C(=O)O)c3ccccc3[n+](C)c12 (stereo not drawn) | > 100 µM | > 100 µM | 93.2 µM | > 100 µM | > 100 µM | > 100 µM | > 100 µM | > 100 µM | > 100 µM | – | > 100 µM | > 100 µM | > 100 µM | > 100 µM | > 100 µM | > 100 µM | – | > 100 µM | > 100 µM | > 100 µM |
| O=C1/C(=C/c2ccco2)N=C2Sc3c(nc[nH]c3=O)N12 | > 100 µM | > 100 µM | > 100 µM | > 100 µM | > 100 µM | > 100 µM | > 100 µM | > 100 µM | > 100 µM | > 100 µM | > 100 µM | > 100 µM | > 100 µM | > 100 µM | – | > 100 µM | > 100 µM | > 100 µM | > 100 µM | > 100 µM |
| C#C/C=C\CCCCCCCCCCCCCC/C=C\CCCCC#CC(O)C#CCCCC/C=C\CCCCCC/C=C/C(O)C#C (stereo not drawn) | 26.7 µM | 31 µM | > 75 µM | 17.2 µM | 35.9 µM | > 75 µM | 37.1 µM | > 40.2 µM | > 57.7 µM | 36.8 µM | 20.1 µM | > 62.3 µM | – | > 49 µM | 36.8 µM | 33.8 µM | > 16 µM | > 75 µM | 37.4 µM | > 72 µM |
| O=[N+]([O-])c1ccc(Oc2c(Cl)cc(S(=O)(=O)/N=C(\NO)Nc3ccc(Cl)cc3)cc2Cl)c(Cl)c1 | 27.8 µM | – | 51.4 µM | 31.3 µM | 28 µM | 30.6 µM | 35.7 µM | 34 µM | 26.7 µM | 31.2 µM | 28.4 µM | 32.1 µM | 34.3 µM | 29.7 µM | 27.5 µM | 28.3 µM | 26.4 µM | 36.7 µM | 26.5 µM | 47.6 µM |
| COC(=O)C1=C(OC(=O)c2ccccc2)C(C(=O)OC)[C@@]2(O)[C@@H](C(=O)OC)[C@H](C)C[C@@H]1[C@@H]2C(=O)OC (stereo partly drawn) | > 100 µM | > 100 µM | 44.8 µM | > 100 µM | > 100 µM | > 100 µM | > 100 µM | > 100 µM | > 100 µM | – | > 100 µM | > 100 µM | > 100 µM | > 100 µM | > 100 µM | > 100 µM | 33 µM | > 100 µM | > 100 µM | > 100 µM |
| CNC(=O)NCCN1CC2CCC(CC2)C1 | > 10 µM | > 10 µM | > 10 µM | > 10 µM | > 10 µM | > 10 µM | > 10 µM | > 10 µM | > 10 µM | – | > 10 µM | > 10 µM | > 10 µM | > 10 µM | > 10 µM | > 10 µM | > 10 µM | > 10 µM | > 10 µM | > 10 µM |
| COc1cc2oc(-c3ccc4c(c3)OCO4)c(OC)c(=O)c2c(OC)c1O | 43.9 µM | > 100 µM | > 100 µM | > 100 µM | > 100 µM | > 100 µM | – | > 100 µM | > 100 µM | 89.4 µM | > 100 µM | > 100 µM | – | > 100 µM | > 100 µM | > 100 µM | 59.2 µM | > 100 µM | > 100 µM | > 100 µM |
| N#Cc1ccc(CSC2=C(c3ccc(Cl)cc3)S/C(=C3\SC(SCc4ccc(C#N)cc4)=C(c4ccc(Cl)cc4)S3)S2)cc1 | > 100 µM | > 100 µM | > 100 µM | > 100 µM | > 100 µM | > 100 µM | > 100 µM | > 100 µM | > 100 µM | – | > 100 µM | > 100 µM | > 100 µM | > 100 µM | > 100 µM | > 100 µM | > 100 µM | > 100 µM | – | > 100 µM |
| COC(=O)c1ccccc1CC(Cc1ccc2c(c1)CCC2)C(=O)OC (stereo not drawn) | > 100 µM | > 100 µM | > 100 µM | > 100 µM | > 100 µM | > 100 µM | > 100 µM | > 100 µM | > 100 µM | > 100 µM | > 100 µM | > 100 µM | > 100 µM | > 100 µM | – | > 100 µM | > 100 µM | > 100 µM | > 100 µM | > 100 µM |
| CC1=NC2c3c(-c4ccc(Cl)cc4)cn(-c4ccc(C)cc4)c3N=CN2N1 (stereo not drawn) | > 100 µM | > 100 µM | > 100 µM | > 100 µM | > 100 µM | > 100 µM | > 100 µM | > 100 µM | > 100 µM | 63.3 µM | – | > 100 µM | – | > 100 µM | > 100 µM | > 100 µM | > 100 µM | > 100 µM | > 100 µM | > 100 µM |
